The source made the active and inactive calls.
Assays:
[1] = microbe, parasite or virus in culture; assay type: functional; conditions: Mycobacterium tuberculosis
[2] = target: T1, Short transient receptor potential channel 4 (Mus musculus, UniProt Q9QUQ5); test: mouse TRPC4 channel activators, dose response, cell-based, HEK293 TRPC4/mu-opioid, Fluo-4 calcium (AID 434937); assay type: functional
T1 sequence (Q9QUQ5 whole entry): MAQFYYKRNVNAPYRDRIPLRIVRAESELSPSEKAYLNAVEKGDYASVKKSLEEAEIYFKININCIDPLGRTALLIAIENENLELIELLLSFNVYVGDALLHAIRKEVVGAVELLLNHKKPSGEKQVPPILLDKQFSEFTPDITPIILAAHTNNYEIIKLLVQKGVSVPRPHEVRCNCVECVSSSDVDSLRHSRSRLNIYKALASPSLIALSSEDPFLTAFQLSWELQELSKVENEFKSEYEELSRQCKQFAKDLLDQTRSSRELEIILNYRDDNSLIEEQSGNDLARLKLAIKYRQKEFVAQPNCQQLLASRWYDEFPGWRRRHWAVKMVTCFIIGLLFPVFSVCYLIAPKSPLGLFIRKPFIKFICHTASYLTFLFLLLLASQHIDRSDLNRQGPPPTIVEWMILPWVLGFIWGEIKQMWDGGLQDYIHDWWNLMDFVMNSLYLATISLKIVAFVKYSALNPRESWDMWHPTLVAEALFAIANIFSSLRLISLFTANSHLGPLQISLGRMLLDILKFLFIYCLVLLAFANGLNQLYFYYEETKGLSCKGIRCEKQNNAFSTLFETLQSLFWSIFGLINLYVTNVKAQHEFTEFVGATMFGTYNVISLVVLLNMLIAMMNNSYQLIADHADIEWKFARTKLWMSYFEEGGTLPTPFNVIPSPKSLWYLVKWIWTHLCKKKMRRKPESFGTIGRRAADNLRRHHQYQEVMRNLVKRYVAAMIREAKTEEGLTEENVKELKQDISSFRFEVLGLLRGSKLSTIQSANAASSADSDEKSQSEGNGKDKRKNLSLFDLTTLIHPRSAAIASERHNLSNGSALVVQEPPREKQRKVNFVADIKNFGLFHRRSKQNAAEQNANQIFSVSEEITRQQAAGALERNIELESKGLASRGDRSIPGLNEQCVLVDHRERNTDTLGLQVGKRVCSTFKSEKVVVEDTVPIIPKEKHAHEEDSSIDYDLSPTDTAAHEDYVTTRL

[3] = NIH-3T3 fibroblast cytotoxicity, dose response, cytotoxicity control, cell-based, fluorescence, Alamar Blue, secondary assay (AID 2327); assay type: functional;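 note: NIH-3T3 mouse fibroblasts cultured with fluconazole at 8 µg/mL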
[4] = C. albicans growth with fluconazole, confirmation, fluorescence, retest (AID 2467); assay type: functional, cell-based
[5] = target: Heat shock protein HSP 90-alpha (Homo sapiens, UniProt P07900); assay type: functional, organism-based
[6] = target: 26S proteasome non-ATPase regulatory subunit 14 (Homo sapiens, UniProt O00487); test: inhibition of proteasome subunit RPN11 – biochemical, fluorescence polarization, uHTS hits, confirmation (AID 602368); assay type: functional
[7] = target: 72 kDa type IV collagenase (Homo sapiens, UniProt P08253); test: Dose Response validation of uHTS RPN11 inhibitor hits using a MMP-2 Fluorescence assay.; assay type: functional
[8] = target: Prothrombin (Bos taurus, UniProt P00735); test: thrombin inhibition, dose response, biochemical, fluorescence polarization, uHTS hits (AID 602369); assay type: functional
[9] = target: T2, Endoribonuclease toxin MazF (Escherichia coli K-12, UniProt P0AE70); test: fluorescent RNA oligo signal without MazF, dose response, counter-screen for MazEF activator project, biochemical, fluorescence, single-stranded RNase substrate (AID 588502); assay type: functional
T2 sequence (P0AE70 whole entry): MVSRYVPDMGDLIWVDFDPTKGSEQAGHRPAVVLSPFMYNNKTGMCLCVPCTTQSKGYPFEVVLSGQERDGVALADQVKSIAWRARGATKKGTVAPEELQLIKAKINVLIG

[10] = target: T2, Endoribonuclease toxin MazF; test: MazF toxin RNase activators, dose response, biochemical, fluorescence, single-stranded RNA substrate, uHTS hits (AID 588481); assay type: functional
[11] = Luminescence Cell-Based Dose Retest to Confirm Inhibitors of Cancer Stem Cells. [Related pubchem assays (depositor defined):AID2717, AID2721]; assay type: functional; conditions: Homo sapiens
[12] = cells; assay type: functional
[13] = target: T3, Protein RecA (Mycobacterium tuberculosis, UniProt P9WHJ3); test: Fluorescence Cell-Free Homogeneous Dose Retest to Identify Inhibitors of RecA-Intein Splicing Activity. [Related pubchem assays (depositor defined):AID2097, AID2223, AID489010, AID492950]; assay type: functional
T3 sequence (P9WHJ3 whole entry): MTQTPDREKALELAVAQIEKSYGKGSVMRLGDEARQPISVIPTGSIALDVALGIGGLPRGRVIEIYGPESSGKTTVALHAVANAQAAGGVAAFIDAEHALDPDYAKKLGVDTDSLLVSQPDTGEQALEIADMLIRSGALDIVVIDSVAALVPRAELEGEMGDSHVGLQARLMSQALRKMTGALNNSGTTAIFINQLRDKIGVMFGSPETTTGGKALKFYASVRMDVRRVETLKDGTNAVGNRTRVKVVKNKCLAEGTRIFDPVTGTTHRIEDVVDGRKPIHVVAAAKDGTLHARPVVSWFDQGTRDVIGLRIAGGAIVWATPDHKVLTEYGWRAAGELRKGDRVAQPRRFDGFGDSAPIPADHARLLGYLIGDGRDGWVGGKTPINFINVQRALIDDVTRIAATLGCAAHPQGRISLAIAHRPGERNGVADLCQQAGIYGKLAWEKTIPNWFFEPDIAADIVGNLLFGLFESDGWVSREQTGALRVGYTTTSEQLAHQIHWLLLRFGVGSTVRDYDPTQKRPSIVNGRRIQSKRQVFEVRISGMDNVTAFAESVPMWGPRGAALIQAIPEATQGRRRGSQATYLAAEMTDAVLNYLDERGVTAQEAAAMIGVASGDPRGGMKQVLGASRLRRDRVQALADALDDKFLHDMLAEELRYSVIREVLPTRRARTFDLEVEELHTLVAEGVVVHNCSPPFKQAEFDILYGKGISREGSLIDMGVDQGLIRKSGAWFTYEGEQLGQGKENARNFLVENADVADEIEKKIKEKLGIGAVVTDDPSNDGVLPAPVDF

[14] = target: T4, Replicative DNA helicase DnaB (Mycobacterium tuberculosis, UniProt P9WMR3); test: DnaB intein splicing inhibitors, dose response, biochemical, cell-free fluorescence (AID 449749); assay type: functional
T4 sequence (P9WMR3 whole entry): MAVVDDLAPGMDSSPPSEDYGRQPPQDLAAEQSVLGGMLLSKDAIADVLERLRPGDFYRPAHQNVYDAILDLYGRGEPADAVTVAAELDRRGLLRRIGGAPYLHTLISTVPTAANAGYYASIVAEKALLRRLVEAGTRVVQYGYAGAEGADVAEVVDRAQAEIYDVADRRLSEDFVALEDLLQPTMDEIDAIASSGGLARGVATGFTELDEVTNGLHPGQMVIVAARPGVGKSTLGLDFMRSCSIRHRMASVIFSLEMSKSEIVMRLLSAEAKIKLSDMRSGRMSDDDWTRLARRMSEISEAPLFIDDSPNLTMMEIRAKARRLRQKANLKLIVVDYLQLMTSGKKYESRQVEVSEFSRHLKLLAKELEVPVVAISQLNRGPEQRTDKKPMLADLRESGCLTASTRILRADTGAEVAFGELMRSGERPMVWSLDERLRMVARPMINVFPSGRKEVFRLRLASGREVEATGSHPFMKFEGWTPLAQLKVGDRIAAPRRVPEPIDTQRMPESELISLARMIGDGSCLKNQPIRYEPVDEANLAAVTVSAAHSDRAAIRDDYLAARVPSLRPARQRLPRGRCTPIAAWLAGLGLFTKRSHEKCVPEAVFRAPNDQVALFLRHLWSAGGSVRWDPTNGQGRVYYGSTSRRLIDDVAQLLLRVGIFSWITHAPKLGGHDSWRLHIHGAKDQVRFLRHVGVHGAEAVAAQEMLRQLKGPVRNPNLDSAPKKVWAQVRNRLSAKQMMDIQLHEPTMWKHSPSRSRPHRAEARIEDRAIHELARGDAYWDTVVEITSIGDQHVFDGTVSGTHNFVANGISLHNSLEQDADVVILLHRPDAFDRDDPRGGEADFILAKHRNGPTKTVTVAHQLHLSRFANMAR

[15] = target: Cytochrome P450 3A4 (Homo sapiens, UniProt P08684); conditions: Potency;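 note: confirmatory qHTS run detecting inhibitors and substrates of CYP3A4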
[16] = target: Voltage-gated inwardly rectifying potassium channel KCNH2 (Homo sapiens, UniProt Q12809); conditions: Potency;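 note: confirmatory quantitative high-throughput screen measuring inhibition of hERG channel activity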
[17] = inhibitors of SNCA 5'UTR-driven reporter translation, confirmation, H4 neuroglioma cells, luminescence (AID 1988); assay type: functional, cell-based
[18] = Luminescence Cell-Based Dose Response HTS to Identify Inhibitors of 5'UTR Stem-Loop Driven Prion Protein mRNA Translation in H4 Neuroglioblastoma Cells. [Related pubchem assays: 1827 (Project Summary), 1813 (Primary HTS)]; assay type: functional
[19] = target: T5, Ubiquitin-conjugating enzyme E2 N (Homo sapiens, UniProt P61088); assay type: functional;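 note: Dose-response confirmation in a TR-FRET assay detecting UBC13-driven polyubiquitin chain formation, inhibition measured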
T5 sequence (P61088 whole entry): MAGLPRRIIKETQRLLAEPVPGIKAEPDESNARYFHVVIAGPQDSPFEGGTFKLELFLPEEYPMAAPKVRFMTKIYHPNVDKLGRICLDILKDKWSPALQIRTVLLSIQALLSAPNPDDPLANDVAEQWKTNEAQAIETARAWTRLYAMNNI

[20] = inhibitors of firefly luciferase expression or activity, dose response, H4 neuroglioma cells, luminescence (AID 1990); assay type: functional, cell-based
[21] = test system: Streptococcus; test: Group A Streptococcus viability loss, dose response, counter-screen for streptokinase expression inhibitor project, luminescence, BacTiterGlo (AID 1915); assay type: functional, organism-based;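 note: potency for reduction of bacterial viability or growth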
[22] = test system: INS1; test: beta cell apoptosis inhibitors, cytokine rescue, dose response, luminescence, retest (AID 449756); assay type: functional, cell-based; conditions: Rattus norvegicus;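 note: cell death triggered by IL-1 beta plus TNF-alpha plus IFN-gamma mixture; protective hits raise ATP signal compared with cytokine alone wells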
[23] = test system: Streptococcus sp. 'group A'; test: growth inhibition of control SK(-) GAS strain, dose response, counter-screen for streptokinase expression inhibitor project, luminescence, kanamycin, BacTiterGlo, confirmation (AID 1900); assay type: functional, organism-based
[24] = test system: SN12K1; test: cells; assay type: functional; conditions: Homo sapiens
[25] = test system: P388/ADR; test: cells; assay type: functional; conditions: Mus musculus
[26] = test system: P388; test: cells; assay type: functional; conditions: Mus musculus

Sequence of 26S proteasome non-ATPase regulatory subunit 14 (O00487 whole entry): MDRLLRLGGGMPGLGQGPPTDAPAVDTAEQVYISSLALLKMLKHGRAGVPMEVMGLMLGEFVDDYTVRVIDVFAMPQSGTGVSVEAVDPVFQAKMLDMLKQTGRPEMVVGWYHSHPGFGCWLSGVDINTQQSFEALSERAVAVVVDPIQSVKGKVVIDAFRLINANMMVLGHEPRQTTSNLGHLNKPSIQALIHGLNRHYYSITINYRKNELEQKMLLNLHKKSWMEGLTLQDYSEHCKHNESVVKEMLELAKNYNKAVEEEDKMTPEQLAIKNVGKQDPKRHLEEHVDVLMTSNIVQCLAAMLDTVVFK
Sequence of Voltage-gated inwardly rectifying potassium channel KCNH2 (Q12809 whole entry): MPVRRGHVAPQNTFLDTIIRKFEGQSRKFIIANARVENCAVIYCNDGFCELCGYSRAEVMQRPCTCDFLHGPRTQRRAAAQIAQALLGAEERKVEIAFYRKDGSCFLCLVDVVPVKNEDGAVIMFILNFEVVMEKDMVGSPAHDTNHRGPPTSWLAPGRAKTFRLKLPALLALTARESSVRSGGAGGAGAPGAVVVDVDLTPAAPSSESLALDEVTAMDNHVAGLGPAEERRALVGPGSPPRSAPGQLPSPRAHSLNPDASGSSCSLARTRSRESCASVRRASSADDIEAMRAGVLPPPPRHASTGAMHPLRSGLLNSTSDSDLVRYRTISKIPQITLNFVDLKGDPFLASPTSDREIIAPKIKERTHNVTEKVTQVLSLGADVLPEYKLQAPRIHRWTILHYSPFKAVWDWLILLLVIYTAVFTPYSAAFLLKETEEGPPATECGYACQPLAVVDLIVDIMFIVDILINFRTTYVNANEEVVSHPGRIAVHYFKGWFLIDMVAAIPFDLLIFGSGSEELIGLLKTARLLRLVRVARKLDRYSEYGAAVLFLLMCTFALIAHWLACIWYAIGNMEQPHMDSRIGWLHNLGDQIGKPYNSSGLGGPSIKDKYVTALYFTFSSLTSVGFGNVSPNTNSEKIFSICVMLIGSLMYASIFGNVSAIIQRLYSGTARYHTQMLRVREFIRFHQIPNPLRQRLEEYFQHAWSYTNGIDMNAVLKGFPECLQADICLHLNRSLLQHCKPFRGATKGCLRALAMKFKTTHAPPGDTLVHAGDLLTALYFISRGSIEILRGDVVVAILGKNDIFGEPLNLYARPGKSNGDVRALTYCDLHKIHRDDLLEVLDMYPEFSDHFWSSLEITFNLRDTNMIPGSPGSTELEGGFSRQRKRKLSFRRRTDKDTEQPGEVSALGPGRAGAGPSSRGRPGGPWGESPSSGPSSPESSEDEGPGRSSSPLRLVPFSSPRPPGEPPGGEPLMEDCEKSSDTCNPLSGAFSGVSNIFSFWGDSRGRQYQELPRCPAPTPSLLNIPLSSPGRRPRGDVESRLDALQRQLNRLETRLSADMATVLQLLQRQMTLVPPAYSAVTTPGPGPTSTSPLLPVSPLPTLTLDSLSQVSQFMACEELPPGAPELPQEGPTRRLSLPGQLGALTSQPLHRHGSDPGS
Sequence of 72 kDa type IV collagenase (P08253 whole entry): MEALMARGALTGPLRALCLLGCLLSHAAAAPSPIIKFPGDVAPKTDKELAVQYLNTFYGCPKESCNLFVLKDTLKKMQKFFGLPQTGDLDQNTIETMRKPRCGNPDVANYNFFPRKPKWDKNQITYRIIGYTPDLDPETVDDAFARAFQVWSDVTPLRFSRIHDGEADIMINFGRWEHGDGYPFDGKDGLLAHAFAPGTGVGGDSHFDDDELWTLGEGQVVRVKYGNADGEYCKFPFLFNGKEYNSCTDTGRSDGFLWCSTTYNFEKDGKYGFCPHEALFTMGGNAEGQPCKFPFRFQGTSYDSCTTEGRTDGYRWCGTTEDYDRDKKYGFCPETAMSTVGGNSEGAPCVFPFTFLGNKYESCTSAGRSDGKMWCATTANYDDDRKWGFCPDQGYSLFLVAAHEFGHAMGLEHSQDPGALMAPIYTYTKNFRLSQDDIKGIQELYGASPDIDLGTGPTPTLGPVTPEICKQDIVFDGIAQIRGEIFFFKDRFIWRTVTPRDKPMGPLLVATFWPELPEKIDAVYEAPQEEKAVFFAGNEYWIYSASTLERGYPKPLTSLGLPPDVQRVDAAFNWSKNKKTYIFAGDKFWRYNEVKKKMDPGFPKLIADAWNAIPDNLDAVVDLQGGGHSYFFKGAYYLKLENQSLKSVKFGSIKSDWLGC
Sequence of Cytochrome P450 3A4 (P08684 whole entry): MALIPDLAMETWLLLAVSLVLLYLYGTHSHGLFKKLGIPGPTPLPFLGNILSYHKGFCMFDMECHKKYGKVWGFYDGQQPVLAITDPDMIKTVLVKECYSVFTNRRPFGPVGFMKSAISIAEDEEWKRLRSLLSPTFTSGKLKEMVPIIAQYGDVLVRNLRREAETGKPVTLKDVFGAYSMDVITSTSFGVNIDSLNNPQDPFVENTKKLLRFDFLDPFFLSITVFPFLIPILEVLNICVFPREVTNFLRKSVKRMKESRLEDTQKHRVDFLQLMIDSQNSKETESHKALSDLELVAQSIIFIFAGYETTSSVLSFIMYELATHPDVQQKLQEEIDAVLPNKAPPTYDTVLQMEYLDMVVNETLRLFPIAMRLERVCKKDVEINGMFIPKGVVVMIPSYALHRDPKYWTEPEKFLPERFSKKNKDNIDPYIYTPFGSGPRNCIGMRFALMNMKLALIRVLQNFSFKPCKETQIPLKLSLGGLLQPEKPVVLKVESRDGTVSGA

Compound: CN(C)C1(CNC(=O)Nc2ccc(Cl)c(Cl)c2)CCCCC1
- CC50 [1]: > 40 µM (active)
- EC50 [2]: 1.68 µM (active)

Compound: O=C(/C=C/c1cc(Br)ccc1O)c1ccco1
- CC50 [1]: 7.21 µM (active)
- EC50 [3]: > 150 µM (inconclusive)
- EC50 [4]: 2.26 µM (active)
- AC50 [5]: 7.73 µM (active)

Compound: CCOc1cc(/C=C2\SC(=S)N(NC(=O)c3cccnc3)C2=O)ccc1O
- IC50 [6]: 25.8 µM (active)
- IC50 [7]: > 100 µM (inactive)
- IC50 [8]: 35.7 µM (active)

Compound: CC(C)OC(=O)c1c2c(n3ccccc13)C(=O)c1ccccc1C2=O
- EC50 [9]: > 99 µM (inactive)
- EC50 [10]: > 99 µM (inactive)
- AC50 [11]: 2.17 µM (active)
- IC50 [12]: 0.44 µM (active)

Compound: Cc1cccc(C(=O)OC2CCCN(C)C2)c1C (centres undefined)
- EC50 [2]: 0.841 µM (active)

Compound: O=C(CCl)NN=C(c1ccccc1)c1ccccc1
- EC50 [9]: > 99 µM (inactive)
- CC50 [1]: 6.85 µM (active)
- EC50 [10]: 61.2 µM (inactive)
- EC50 [13]: 2.71 µM (active)
- AC50 [14]: 12.1 µM (active)

Compound: COc1cccc(Nc2nc(-c3ccccc3O)nc3ccccc23)c1
- EC50 [9]: 40.7 µM (inactive)
- EC50 [10]: > 99 µM (inactive)

Compound: CCCCCCCC/C=C\CCCCCCCC(=O)N(CCO)CCO
- AC50 [15]: 12.6 µM (inconclusive)
- AC50 [16]: 31.6 µM (inconclusive)

Compound: COC(=O)c1c(NC(=O)c2nc3ccccc3s2)sc2c1CC(C)(C)NC2(C)C
- EC50 [17]: 8.54 µM (active)
- EC50 [9]: > 99 µM (inactive)
- EC50 [18]: 8.33 µM (active)
- EC50 [10]: > 99 µM (inactive)
- IC50 [19]: > 20 µM (inactive)
- EC50 [20]: 8.05 µM (active)

Compound: Cc1cc(C)c2c(N)c(C(=O)N/N=C/c3cccs3)sc2n1
- IC50 [6]: 8.64 µM (active)
- IC50 [7]: > 100 µM (inactive)
- IC50 [8]: 35.8 µM (active)

Compound: O=C(N/N=C/c1cc([N+](=O)[O-])ccc1O)c1cc(-c2ccccc2)nc2ccccc12
- EC50 [21]: 2.65 µM (active)
- IC50 [6]: 14.8 µM (active)
- AC50 [22]: 1.24 µM (active)
- IC50 [7]: > 100 µM (inactive)
- IC50 [8]: 10.7 µM (active)
- EC50 [23]: 1.83 µM (active)

Compound: CCOC(=O)c1ncn2c1[C@@H]1CCCN1C(=O)c1cc(OC)ccc1-2
- AC50 [16]: 25.1 µM (inconclusive)

Compound: ClC1=C(Cl)C2(Cl)C3C4C=CC(C4)C3C1(Cl)C2(Cl)Cl (centres undefined) [ALDRIN]
- AC50 [16]: 20 µM (inconclusive)

Compound: Nc1nc2[nH]c(=O)cnc2c(=O)[nH]1 [ISOXANTHOPTERIN]
- GI50 [24]: > 125 µM (inactive)
- AC50 [16]: 17.8 µM (inconclusive)
- GI50 [25]: > 125 µM (inactive)
- GI50 [26]: > 125 µM (inactive)
